Data taken from publication PMC12990037, “Discovery of Two Structurally Distinct Classes of Inhibitors Targeting the Nuclease MUS81 and Enhancing Efficacy of Chemotherapy in Cancer Cells” (Journal of Medicinal Chemistry, 2026).
pIC50: −log10 of the molar value.

Legend:
U2OS DR-GFP cells = assay: I-SceI-based HR repair reporter assay; assay type: cell-based; settings: Homo sapiens, 72 h
Method: 3 MUS81 inhibitors suppress HR and BIR. (A) I-SceI-based BIR repair efficiency was measured in U2OS BIR-GFP cells treated with DMSO, two different siRNAs targeting MUS81, or the indicated concentrations of MU262 and MU876, and their control analogues for 72 h. The percentage of repair was normalized to the DMSO-treated control (D). n = 3. Error bars represent standard deviation (s.d.); ****p <0.0001 (unpaired, two-tailed t-test). […] (C,D) I-SceI-based HR (C) and NHEJ (D) repair efficiency was measured using U2OS DR-GFP and EJ5-GFP cells, respectively, following treatment with DMSO, MU262,MU876, or their control analogues for 72 h. The percentage of repair was normalized to the DMSO-treated control. n = 3. Error bars represent s.d.; *p <0.05, **p <0.01, ****p <0.0001 (unpaired, two-tailed t-test).
Reporter DR-GFP and […] U2OS cells along with BIR-GFP cells were transfected with 2.5 μg of I-SceI-expressing pCAGGS vector and subsequently treated with MUS81 inhibitors at the indicated concentrations. After transfection (72 h), cells were trypsinized and resuspended in 3% BSA in PBS. GFP fluorescence detection was carried out using a BD FACSVerse flow cytometer, and the data were analyzed with FlowJo software (BD Life Sciences). Data presented in the graph were normalized to the DMSO-treated sample.

[1] = target: T1, truncated MUS81 binding to immobilized DNA substrate (Homo sapiens, UniProt Q96NY9); assay: Biolayer interferometry (BLI); settings: truncated MUS81 200 nM
T1 construct: made in house
T1 sequence (Q96NY9 246-551): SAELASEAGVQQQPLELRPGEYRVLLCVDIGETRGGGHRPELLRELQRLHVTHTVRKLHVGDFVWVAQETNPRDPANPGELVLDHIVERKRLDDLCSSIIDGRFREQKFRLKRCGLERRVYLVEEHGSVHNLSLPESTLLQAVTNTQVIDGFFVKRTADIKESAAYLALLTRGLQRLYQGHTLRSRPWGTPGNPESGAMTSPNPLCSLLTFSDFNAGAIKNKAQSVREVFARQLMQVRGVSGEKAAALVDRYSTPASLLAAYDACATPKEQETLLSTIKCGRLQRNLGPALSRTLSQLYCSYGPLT
T1 sequence (Q96AY2 178-570 partner limits assumed): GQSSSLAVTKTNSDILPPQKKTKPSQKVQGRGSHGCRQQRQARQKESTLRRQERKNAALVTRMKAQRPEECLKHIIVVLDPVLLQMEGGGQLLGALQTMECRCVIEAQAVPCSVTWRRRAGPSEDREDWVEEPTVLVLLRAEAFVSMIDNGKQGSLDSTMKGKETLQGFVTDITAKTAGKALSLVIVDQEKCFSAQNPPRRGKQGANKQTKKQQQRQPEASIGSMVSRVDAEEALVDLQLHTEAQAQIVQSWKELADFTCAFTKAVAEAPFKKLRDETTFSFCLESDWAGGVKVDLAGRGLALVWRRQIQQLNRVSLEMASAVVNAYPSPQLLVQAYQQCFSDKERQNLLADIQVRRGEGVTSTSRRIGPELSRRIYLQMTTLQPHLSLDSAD
Method: (A,B) Purified MUS81–EME1 (160 nM) was incubated with increasing concentrations of MU262, MU876, or their respective control analogues, followed by the addition of 3 nM fluorescently labeled 3′ flap DNA substrate. MgCl2 was omitted from the reaction buffer to prevent substrate cleavage. The reaction products were resolved on a native PAGE gel. The lower band represents a free DNA substrate, while the upper smear corresponds to the MUS81–DNA complex. n = 3. (C,D) A 3′ flap cleavage-resistant DNA substrate was immobilized on a streptavidin-coated (SAX) sensor and incubated with truncated MUS81 (200 nM) alone, or with MUS81 premixed with DMSO, MU876, MU262, or their respective control analogues. The real-time binding kinetics were measured as a change in optical thickness over time. Representative plots shown from two independent experiments. (E) Representative images of a DMSO-treated cell within 100 s after microirradiation. GFP-MUS81 U2OS cells were preincubated with DMSO or MU876 at 1 and 5 μM final concentration for 2 h. Localized DNA damage was induced using a 355 nm laser microirradiation at specific sites in individual nuclei. […] (F) The integrated intensity of a GFP-MUS81 signal accumulation ± SE from (E). n = 3.

U2OS cells = assay: Colony formation assay (CFA); assay type: cell-based; settings: 10–12 days
Method: 6 MUS81 inhibition induces persistent DNA damage leading to reduced cell survival. (A) U2OS cells were treated with DMSO, cisplatin as a positive control, control or MUS81-targeting siRNA, MU262, MU876, and their negative control counterparts at the indicated concentrations for 72 h. Representative images show staining of a DNA damage marker γH2AX in green with counterstaining of DAPI in blue. The concentration of all inhibitors shown in (A) is 2.5 μM. (B) DNA damage was assessed by quantifying γH2AX foci per nucleus from (A) using CellProfiller software. The graph represents percentage (%) of cells with ≥20 γH2AX foci per nucleus across different concentrations of inhibitors. n = 3; error bars represent s.d. (C) Indicated number of U2OS cells was transfected with a nontargeting siRNA (siCon) or MUS81-targeting siRNA (siMUS81) seeded for a CFA. […] (D) Quantification of (C), error bars represent s.d.; ****p <0.0001 (unpaired, two-tailed t-test). […] (F) Quantification of (E) using a nonlinear regression fitting model. n = 3. […] (H) Quantification of (G) using a nonlinear regression fitting model. n = 3.
Cells were trypsinized, plated at the desired density in 6-well plates for colony forming assay, and then incubated for 10 days. […] The colonies were then solubilized using 10% acetic acid solution, and absorbance was measured with a plate reader. […]

Row | Structure (SMILES) | pIC50 (U2OS DR-GFP cells) | effect on MUS81–DNA binding (BLI) [1] | clonogenic cell survival (U2OS cells)
1 | CCc1nn2c(O)c(-c3nc4ccccc4[nH]3)nnc2c1-c1ccc(F)cc1 [Compound 18, 3-(1H-Benzo[d]imidazole-2-yl)-7-ethyl-8-(4-fluorophenyl)pyrazolo[5,1-c][1,2,4]triazin-4-ol] | 6.00 to 6.30 | only negligible effect | significantly decreased cell survival
2 | Cc1cc(=O)[nH]c(-n2nc(-c3ccccc3)cc2NC(=O)c2cc(-c3ccccc3)on2)n1 [Compound 32, N-(1-(4-Methyl-6-oxo-1,6-dihydropyrimidin-2-yl)-3-phenyl-1H-pyrazol-5-yl)-5-phenylisoxazole-3-carboxamide] | 6.00 to 6.30 |  | significantly decreased cell survival
